According to patent US20240124504A1, “AROMATIC HETEROCYCLIC COMPOUND, AND PHARMACEUTICAL COMPOSITION AND APPLICATION THEREOF” (GT APEIRON THERAPEUTICS LIMITED, priority 2020, published 2024):

Experiments:
[1] = tested on: ovarian cancer A2780; test: Cell biological activity detection (CyQuant, 72 hours), A2780; format: cell-based, human; conditions: A2780 cells, incubation for 72 hours
Outline: (§1)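 IC50 derived from CyQuant Direct nuclear staining (488 nm excitation) after 72 h compound exposure at 37 °C, 5% CO2. Compounds tested in 9 concentrations from 10 μM, 1:4 steps, 0.2% DMSO, on A2780 or HCC70 cells plated overnight at 2000/well in RPMI 1640 + 10% FBS.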

[2] = biological target: CDK9/cyclinT1 complex (Homo sapiens, UniProt P50750); test: In-vitro enzymatic inhibitory activity testing, CDK9 inhibition assay (Caliper EZ Reader II); format: biochemical; conditions: CDK9/cyclinT1 8 nM, 180 min at 27° C.
Outline: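 Phosphorylated and unphosphorylated fluorescent peptide were resolved by mobility-shift electrophoresis, with IC50 taken from a nonlinear regression of dose-response data. Reactions ran 180 min at 27 °C in MES buffer pH 6.5 with MgCl2, after 10 min enzyme–compound preincubation, using 8 nM CDK9/cyclinT1 and 5-FAM-CDK9tide.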

[3] = biological target: CDK7/cyclinH/MAT1 complex (Homo sapiens, UniProt P50613); test: In-vitro enzymatic inhibitory activity testing, CDK7 inhibition assay (Caliper EZ Reader II); format: biochemical; conditions: CDK7/cyclinH/MAT1 6 nM, 180 min at 27° C.
Outline: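 Enzyme preincubated 10 min with compound, then peptide substrate plus ATP added in 80 mM MES pH 6.5, 10 mM MgCl2 buffer; 180 min at 27 °C, stopped with EDTA.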

[4] = Caco-2 membrane permeability and efflux rate; format: in vitro ADME; conditions: human, Caco-2, Caco-2, 5 μM; for Papp B→A at 2 h, 5 μM: basal end to top end; for efflux ratio at 2 h, 5 μM: read-out: ER (efflux rate); for Papp A→B at 2 h, 5 μM: top end to basal end
Method: The recovered Caco-2 cell suspension was seeded into a […] plate and cultured for 14-18 days. After being cultured for 14 days, the cells were fused and differentiated to be ready for a transport experiment. The Caco-2 cell plate was taken out from the incubator. Stock solutions of a to-be-tested compound and a control compound were formulated with DMSO and diluted with an HBSS (10 mM HEPES, pH 7.4) buffer to a final concentration of 5 μM. A test compound solution and a control drug solution were added to each well (top end) of an insert culture plate, and the HBSS (10 mM HEPES, pH 7.4) buffer was added to each well of a test compound receiving plate (basal end). When measuring the transport rate of the compound from the basal end to the top end, the test compound solution and the control drug solution were added to each well of the receiving plate (basal end), the HBSS (10 mM HEPES, pH 7.4) buffer solution was added to each well (top end) of the insert culture plate for the test compound solution, and incubation was carried out for 2 hours in a CO2 incubator at 37° C. After the transport experiment was completed, vortexing was carried out for 10 minutes at 1000 rpm. After sample quenching at each time point, LC/MS/MS analysis was carried out. A fluorescence value was measured after a two-hour transport experiment, a lucifer yellow solution was added in a transwell chamber (top end), a transport buffer solution was added in the basal end, and incubation was carried out for 30 minutes in the CO2 incubator at 37° C. The solution was taken out directly from the top end and the basal end (using basolateral wells) and transferred to a new 96-well plate. A cell fluorescence value was measured by a microplate reader (to detect membrane integrity), an excitation wavelength was […], and an emission wavelength was […]. All data were calculated by using Microsoft Excel, and a peak area was calculated according to chromatograms. An apparent permeability coefficient (Papp, unit: 10-6, cm/s) and an efflux rate (ER) of the compounds in Caco-2 cells were calculated by the specific concentrations of a receiving end and an administering end.

[5] = tested on: human breast cancer cells HCC70; test: Cell biological activity detection (CyQuant, 72 hours), HCC70; format: cell-based; conditions: incubation for 72 hours
Outline: as §1

CDK7/cyclinH/MAT1 complex, sequence (P50613 whole entry, species assumed): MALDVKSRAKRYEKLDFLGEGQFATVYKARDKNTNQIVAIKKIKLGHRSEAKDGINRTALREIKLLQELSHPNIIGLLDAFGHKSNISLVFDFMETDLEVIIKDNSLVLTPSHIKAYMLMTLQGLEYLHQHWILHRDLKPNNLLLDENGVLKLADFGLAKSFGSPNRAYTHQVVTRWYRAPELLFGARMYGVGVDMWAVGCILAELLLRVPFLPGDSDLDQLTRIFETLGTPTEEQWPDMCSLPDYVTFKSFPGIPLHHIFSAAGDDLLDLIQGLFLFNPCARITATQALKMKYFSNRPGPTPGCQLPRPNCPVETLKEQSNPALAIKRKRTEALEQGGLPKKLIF
CDK7/cyclinH/MAT1 complex, sequence (P51946 whole entry partner, species assumed): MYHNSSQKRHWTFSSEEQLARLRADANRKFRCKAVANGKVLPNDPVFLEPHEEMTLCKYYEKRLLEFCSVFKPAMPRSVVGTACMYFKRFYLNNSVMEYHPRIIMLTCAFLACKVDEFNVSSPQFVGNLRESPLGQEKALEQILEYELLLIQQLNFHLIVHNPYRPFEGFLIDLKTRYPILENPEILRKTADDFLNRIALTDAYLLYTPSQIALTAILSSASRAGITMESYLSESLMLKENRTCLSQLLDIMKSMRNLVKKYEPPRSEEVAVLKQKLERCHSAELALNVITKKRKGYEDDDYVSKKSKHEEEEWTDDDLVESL
CDK7/cyclinH/MAT1 complex, sequence (P51948 whole entry partner, species assumed): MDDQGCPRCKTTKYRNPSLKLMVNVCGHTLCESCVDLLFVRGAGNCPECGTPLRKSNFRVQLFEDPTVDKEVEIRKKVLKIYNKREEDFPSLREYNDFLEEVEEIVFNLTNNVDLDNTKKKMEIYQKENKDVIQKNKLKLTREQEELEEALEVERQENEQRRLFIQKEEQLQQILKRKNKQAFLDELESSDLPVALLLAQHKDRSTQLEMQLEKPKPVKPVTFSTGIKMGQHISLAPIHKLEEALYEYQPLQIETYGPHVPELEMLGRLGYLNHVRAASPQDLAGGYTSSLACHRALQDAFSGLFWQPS
CDK9/cyclinT1 complex, sequence (P50750 whole entry, species assumed): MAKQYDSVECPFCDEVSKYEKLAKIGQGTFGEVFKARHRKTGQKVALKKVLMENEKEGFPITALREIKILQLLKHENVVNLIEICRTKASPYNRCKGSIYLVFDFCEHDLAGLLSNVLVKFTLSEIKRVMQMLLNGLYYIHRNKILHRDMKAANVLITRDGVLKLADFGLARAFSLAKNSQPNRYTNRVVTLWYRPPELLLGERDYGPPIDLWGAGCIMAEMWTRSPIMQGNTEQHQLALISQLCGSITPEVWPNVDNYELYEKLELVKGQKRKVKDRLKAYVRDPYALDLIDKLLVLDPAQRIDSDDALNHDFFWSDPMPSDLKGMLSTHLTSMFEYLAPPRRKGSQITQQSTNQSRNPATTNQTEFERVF
CDK9/cyclinT1 complex, sequence (O60563 whole entry partner, species assumed): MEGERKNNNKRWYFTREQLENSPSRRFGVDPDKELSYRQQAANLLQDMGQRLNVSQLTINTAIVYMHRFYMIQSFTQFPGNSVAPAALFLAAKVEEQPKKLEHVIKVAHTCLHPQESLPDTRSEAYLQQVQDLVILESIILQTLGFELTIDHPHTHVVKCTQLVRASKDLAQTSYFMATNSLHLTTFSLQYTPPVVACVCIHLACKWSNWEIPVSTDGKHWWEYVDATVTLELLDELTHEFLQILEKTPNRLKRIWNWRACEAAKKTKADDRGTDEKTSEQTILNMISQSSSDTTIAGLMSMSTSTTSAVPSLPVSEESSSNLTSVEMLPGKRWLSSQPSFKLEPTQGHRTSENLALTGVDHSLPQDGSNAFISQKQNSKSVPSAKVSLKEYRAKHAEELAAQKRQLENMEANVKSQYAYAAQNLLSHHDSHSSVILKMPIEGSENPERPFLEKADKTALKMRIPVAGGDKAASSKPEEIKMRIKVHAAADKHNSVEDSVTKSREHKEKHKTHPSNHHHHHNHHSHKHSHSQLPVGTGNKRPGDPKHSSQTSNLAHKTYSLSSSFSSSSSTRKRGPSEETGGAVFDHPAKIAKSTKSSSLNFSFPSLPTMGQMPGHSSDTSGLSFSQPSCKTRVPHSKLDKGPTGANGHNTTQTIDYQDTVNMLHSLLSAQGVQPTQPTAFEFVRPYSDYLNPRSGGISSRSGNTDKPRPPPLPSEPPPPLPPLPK

IC50 ([1]; Homo sapiens, A2780, 72 h) [nM]	IC50 [2] [nM]	IC50 [3] [nM]	Papp B→A at 2 h, 5 μM [4] [×10⁻⁶ cm/s]	efflux ratio at 2 h, 5 μM [4]	Papp A→B at 2 h, 5 μM [4] [×10⁻⁶ cm/s]	IC50 [1] [nM]	SMILES	IC50 ([5]; Homo sapiens, HCC70, 72 h) [nM]	IC50 [5] [nM]
< 20	> 50000	< 20	27.3	10.3	2.64	–	CC1(C)COCC(Nc2ncc(C(F)(F)F)c(-c3c[nH]c4c(P(C)(C)=O)cccc34)n2)CN1 (single isomer, unassigned) [Compound 91, (3-(2-((3,3-dimethyl-1,4-oxazepan-6-yl)amino)-5-(trifluoromethyl)pyrimidin-4-yl)-1H-indole-7-yl)dimethylphosphine oxide]	20 to 200	–
–	> 50000	20 to 200	–	–	–	20 to 200	CP(C)(=O)c1cccc2c(-c3nc(NC4(CO)CCOC4)ncc3C(F)(F)F)c[nH]c12 (single isomer, unassigned) [Compound 119]	–	20 to 200
20 to 200	> 50000	< 20	32.4	6.76	4.8	–	CC(O)[C@H](C)Nc1ncc(C(F)(F)F)c(-c2c[nH]c3c(P(C)(C)=O)cccc23)n1 (single isomer, unassigned) [Compound 129]	20 to 200	–
–	> 50000	< 20	–	–	–	20 to 200	CC(O)[C@H](C)Nc1ncc(C(F)(F)F)c(-c2c[nH]c3c(P(C)(C)=O)cccc23)n1 (single isomer, unassigned) [Compound 130]	–	20 to 200
–	> 50000	< 20	–	–	–	20 to 200	CC(CO)CNc1ncc(C(F)(F)F)c(-c2c[nH]c3c(P(C)(C)=O)cccc23)n1 (single isomer, unassigned) [Compound 150]	–	< 20
< 20	> 50000	< 20	23.6	3.95	5.32	–	C[C@@H](CO)Nc1ncc(C(F)(F)F)c(-c2c[nH]c3c(P(C)(C)=O)cccc23)n1 [Compound 82, (S)-(3-(2-((1-hydroxypropyl-2-yl)amino)-5-(trifluoromethyl)pyrimidin-4-yl)-1H-indole-7-yl)dimethylphosphine oxide]	< 20	–
< 20	5000 to 50000	< 20	32.4	16.3	1.99	–	CP(C)(=O)c1cccc2c(-c3nc(N[C@H]4CC[C@H](O)C4)ncc3C(F)(F)F)c[nH]c12 [Compound 83]	< 20	–
< 20	> 50000	< 20	30.6	14.3	2.13	–	CP(C)(=O)c1cccc2c(-c3nc(NCCCO)ncc3C(F)(F)F)c[nH]c12 [Compound 89, (3-(2-((3-hydroxypropyl)amino)-5-(trifluoromethyl)pyrimidin-4-yl)-1H-indole-7-yl)dimethylphosphine oxide]	< 20	–
< 20	> 50000	20 to 200	31.4	12.5	2.51	–	CP(C)(=O)c1cccc2c(-c3nc(NC4(CO)CC4)ncc3C(F)(F)F)c[nH]c12 [Compound 94, (3-(2-((1-(hydroxymethyl)cyclopropyl)amino)-5-(trifluoromethyl)pyrimidin-4-yl)-1H-indole-7-yl)dimethylphosphine oxide]	20 to 200	–

More lines, now with the values behind:

SMILES	IC50 ([1]; Homo sapiens, A2780, 72 h) [nM]	IC50 [2] [nM]	IC50 [3] [nM]	Papp B→A at 2 h, 5 μM [4] [×10⁻⁶ cm/s]	efflux ratio at 2 h, 5 μM [4]	Papp A→B at 2 h, 5 μM [4] [×10⁻⁶ cm/s]	IC50 [1] [nM]	IC50 ([5]; Homo sapiens, HCC70, 72 h) [nM]	IC50 [5] [nM]
CP(C)(=O)c1cccc2c(-c3nc(NC4(CO)CCOC4)ncc3C(F)(F)F)c[nH]c12 (single isomer, unassigned) [Compound 118]	< 20	> 50000	< 20	33.8	16	2.11	–	< 20	–
CP(C)(=O)c1cccc2c(-c3nc(NCC4CC4CO)ncc3C(F)(F)F)c[nH]c12 (single isomer, unassigned) [Compound 143]	20 to 200	> 50000	< 20	32.5	13.3	2.44	–	20 to 200	–
CP(C)(=O)c1cccc2c(-c3nc(NCC4CC4CO)ncc3C(F)(F)F)c[nH]c12 (single isomer, unassigned) [Compound 144]	–	> 50000	20 to 200	–	–	–	20 to 200	–	20 to 200
CC(CO)CNc1ncc(C(F)(F)F)c(-c2c[nH]c3c(P(C)(C)=O)cccc23)n1 (single isomer, unassigned) [Compound 149]	20 to 200	> 50000	< 20	32.8	7.8	4.2	–	< 20	–
C[C@@H](CO)Nc1ncc(C(F)(F)F)c(-c2c[nH]c3c(P(C)(C)=O)c(C#N)ccc23)n1 [Compound 79, (S)-7-(dimethylphosphoryl)-3-(2-((1-hydroxy-propan-2-yl)amino)-5-(trifluoromethyl)pyrimidin-4-yl)-1H-indole-6-carbonitrile]	< 20	> 50000	< 20	22.3	4.38	5.1	–	20 to 200	–
CC(C)(CO)Nc1ncc(C(F)(F)F)c(-c2c[nH]c3c(P(C)(C)=O)cccc23)n1 [Compound 85, (3-(2-((1-hydroxy-2-methylpropan-2-yl)amino)-5-(trifluoromethyl)pyrimidin-4-yl)-1H-indole-7-yl)dimethylphosphine oxide]	< 20	> 50000	< 20	21.3	2.77	7.69	–	20 to 200	–
CP(C)(=O)c1cccc2c(-c3nc(NC[C@H](F)CO)ncc3C(F)(F)F)c[nH]c12 [Compound 86, (S)-(3-(2-((2-fluoro-3-hydroxypropyl)amino)-5-(trifluoromethyl)pyrimidin-4-yl)-1H-indole-7-yl)dimethylphosphine oxide]	< 20	> 50000	< 20	29.5	20.5	1.44	–	20 to 200	–
CP(C)(=O)c1cccc2c(-c3nc(N[C@H]4COC[C@@H]4O)ncc3C(F)(F)F)c[nH]c12 [Compound 87]	< 20	> 50000	< 20	25.1	37.1	0.68	–	< 20	–
CC[C@@H](CO)Nc1ncc(C(F)(F)F)c(-c2c[nH]c3c(P(C)(C)=O)cccc23)n1 [Compound 88, (S)-(3-(2-((1-hydroxybutan-2-yl)amino)-5-(trifluoromethyl)pyrimidin-4-yl)-1H-indole-7-yl)dimethylphosphine oxide]	< 20	> 50000	< 20	29.2	7.77	3.76	–	20 to 200	–
C[C@H](CO)Nc1ncc(C(F)(F)F)c(-c2c[nH]c3c(P(C)(C)=O)cccc23)n1 [Compound 93, (R)-(3-(2-((1-hydroxypropyl-2-yl)amino)-5-(trifluoromethyl)pyrimidin-4-yl)-1H-indole-7-yl)dimethylphosphine oxide]	< 20	> 50000	< 20	27	7.64	3.53	–	< 20	–
